What was measured:
human 5-HT2B receptor [1] = molecular target: T1, human 5-HT2B receptor (Homo sapiens, UniProt P41595); experiment: 5-HT2A, 5-HT2B, 5-HT2C receptor binding methods (counter screen for selectivity); set-up: expressed in transfected cells; host or cells: HEK293 cells; details: HEK293 cells, [3H]-5HT approximately 0.4 nM, 120 min at 4°C; result in words only
Experimental: 5-HT2A receptors were labelled with [^3H]ketanserin in human cortex, in HEK293 cells expressing a cloned human 5-HT2A receptor and in HEK293 cells expressing the rat 5-HT2A receptor. For competition binding studies the ligand concentration was approximately 0.1 nM. For saturation binding studies concentrations of radioligand ranged from 0.01 nM to 2.0 nM. Assays were conducted in 0.5 ml of assay buffer (50 mM Tris-HCl, 4 mM calcium chloride, 0.1 % by weight ascorbic acid) (pH 7.4 at 4°C). Non-specifc binding was defined with […] unlabelled ketanserin. After a 60 min incubation at 32°C, membranes were harvested onto filters treated with 0.1 % by weight of polyethylenimine and the bound radioactivity was determined.
Human 5-HT2B receptors were labelled in HEK293 cells as described above. except that the radioligand was [^3H]-5HT and that the assay buffer contained pargyline in a concentration of 10 mM and 0.1 % by weight of ascorbic acid. […]
Competition radioligand binding data was analyzed using a four parameter logistic equation and iterative curve-fitting techniques to obtain estimates of the IC50 and Hill slope. Kd values, determined from saturation binding studies were then used to calculate inhibition dissociation constants (Ki).

5-HT2B receptor = molecular target: T2, 5-HT2B receptor (Rattus norvegicus, UniProt P30994); experiment: 5-HT2B receptor tissue based functional assay in rat stomach fundus longitudinal muscle; assay type: cell-based; details: dextral shift of agonist concentration-response curve, result in words only
T2 construct: Strips of longitudinal muscle were obtained from the stomach fundus of male Sprague Dawley rats; from tissue; host or cells: rat stomach fundus longitudinal muscle strips (male Sprague Dawley)
T2 sequence (P30994 whole entry): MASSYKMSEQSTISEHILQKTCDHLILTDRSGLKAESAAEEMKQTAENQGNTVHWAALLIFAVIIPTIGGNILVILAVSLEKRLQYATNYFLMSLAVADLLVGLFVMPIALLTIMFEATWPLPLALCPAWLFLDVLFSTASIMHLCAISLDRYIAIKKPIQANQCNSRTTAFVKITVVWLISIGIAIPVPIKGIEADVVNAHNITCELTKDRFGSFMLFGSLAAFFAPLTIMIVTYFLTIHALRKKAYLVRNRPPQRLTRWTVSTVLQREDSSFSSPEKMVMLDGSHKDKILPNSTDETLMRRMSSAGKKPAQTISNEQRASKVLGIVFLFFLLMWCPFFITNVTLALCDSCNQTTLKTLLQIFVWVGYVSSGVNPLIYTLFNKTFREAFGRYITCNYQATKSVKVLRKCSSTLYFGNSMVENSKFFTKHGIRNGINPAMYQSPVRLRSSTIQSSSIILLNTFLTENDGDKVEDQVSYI
Experimental: The following describes an in vitro functional assay characterizing 5-HT receptors (the putative 5-HT2B) in rat stomach fundus longitudinal muscle (Baxter et al., Brit. J. Pharmacol. 1994, 112, 323-331).
Strips of longitudinal muscle were obtained from the stomach fundus of male Sprague Dawley rats. The mucosa was removed and the strips were suspended with a resting tension of 1 g in oxygenated (95% O2 /5% CO2) Tyrode solution at 37°C. The composition of the Tyrode solution was as follows (mM): NaCl 136.9; KCl 2.7; NaH2PO4 0.4; MgCl2 1.0; glucose 5.6; NaHCO3 11.9; CaCl2 1.8. […]
Effects of drugs were monitored by tension transducers and recorded on polygraph recorders. Tissue response was measured as changes in isometric tension (g). The mean potency (EC50) and maximum response were evaluated by standard iterative curve fitting procedures.
Effects of antagonists were determined by measuring dextral shifts to the agonist concentration-response curve after equilibration of the antagonists for at least 1 h. Concentration ratios were measured at half maximal response levels and single concentration antagonist affinities were determined by the equation: KB =(antagonist concentration)/(concentration ratio) [formula]

human H1 receptor [2] = molecular target: T3, human H1 receptor (Homo sapiens, UniProt P35367); experiment: Human histamine H1 receptor functional assay ([3H]-inositol phosphate formation); assay type: cell-based; set-up: expressed in transfected cells; details: transiently transfected HEK-293 cells, histamine-stimulated [3H]-inositol phosphate formation; result in words only
T3 sequence (P35367 whole entry): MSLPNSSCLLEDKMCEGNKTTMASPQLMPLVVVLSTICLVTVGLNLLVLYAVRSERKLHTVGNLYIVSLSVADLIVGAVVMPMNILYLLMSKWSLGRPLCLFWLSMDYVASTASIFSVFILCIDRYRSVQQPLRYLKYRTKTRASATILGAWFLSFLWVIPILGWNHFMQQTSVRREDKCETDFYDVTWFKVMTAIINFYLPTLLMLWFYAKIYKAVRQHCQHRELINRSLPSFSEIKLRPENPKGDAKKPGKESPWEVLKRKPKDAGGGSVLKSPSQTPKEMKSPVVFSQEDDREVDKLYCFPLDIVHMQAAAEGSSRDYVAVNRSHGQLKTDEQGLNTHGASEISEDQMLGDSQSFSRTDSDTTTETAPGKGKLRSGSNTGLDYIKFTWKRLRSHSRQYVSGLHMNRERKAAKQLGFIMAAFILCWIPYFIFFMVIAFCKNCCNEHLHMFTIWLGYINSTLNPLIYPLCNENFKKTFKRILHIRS
Experimental: For the measurement of the [^3H]-inositol phosphate formation transiently transfected HEK-293 cells were seeded in 24 well plates and labeled to equilibrium with myo-[2-^3H]-inositol (3 ìCi/ml) for an additional 24 hours in growth medium. The medium was aspirated and cells were washed once with 500 µl HBS-buffer (130 mM NaCl, 900 µM NaH2PO4, 800 µM MgSO4, 5.4 mM KCl, 1.8 mM CaCl2, 25 mM Glucose in 20 mM HEPES pH 7.4). Two min after applying 20 mM Li^+ the cells were stimulated by addition of histamine in HBS-buffer. The incubation was stopped by aspiration off the culture medium and the addition of cold 10 mM formic acid. [^3H]inositol phosphates were isolated by anion exchange chromatography (see Seuwen et al., 1988, EMBO J., 7, 161-168). The pKB value was calculated according to the formula: pKB = log (A'/A - 1) - log [B], where A'/A is the ratio of the agonist concentrations (EC50 in the presence / EC50 in the absence of antagonist) and [B] the concentration of antagonist.

human H1 receptor [3] = molecular target: T3, human H1 receptor; experiment: Cloned human H1, H2, H3 (and H4) receptor binding assay ([3H]-mepyramine for H1); set-up: expressed in transfected cells; host or cells: COS-7 cells, transiently transfected; cell homogenates; details: COS-7 cell homogenates, 1 nM [3H]-mepyramine, 30 min at 25°C; result in words only
Experimental: COS-7 cells were transiently transfected with an expression plasmid pCineohH1, pCineohH2, pCineohH3 and pCineohH4 encoding the human Histamine H1, H2 H3 or H4 receptor, respectively. Transfected cells were harvested after 48 h, homogenized in ice-cold 50 mM Na2/potassium phosphate buffer (pH 7.4) and used for radioligand binding studies. Cell homogenates (40 - 50 µg of protein) were incubated for 30 min at 25°C in 50 mM Na2/potassium phosphate buffer (pH 7.4) in 400 µl with the various concentrations of either [^3H]-mepyramine, [^3H]-thiotidine, [^3H]-R-α-Methylhistamine, and [^3H]-pyramilamine for cells expressing recombinant human H1, H2, H3 and H4 receptors, respectively. The nonspecific binding was defined in the presence of 1 µM mianserin. In displacement studies, cell homogenated were incubated either with 1 nM [^3H]-mepyramine, 15 nM [^3H]-thiotidine, 0.5 nM [^3H]-R-α-Methylhistamine, or 15 nM [^3H]-pyramilamine and increasing concentrations of competing ligands. The incubations were stopped by rapid dilution with 3 ml of ice-cold 50 mM Na2/potassium phosphate buffer (pH 7.4). The bound radioactivity was seperated by filatration through Whatman GF/C filters that had been treated with 0.3 % polyethyleneimine. Filters were washed twice in 3 ml of buffer and radioactivity retained on the filters was measured by liquid scinitllation counting. […]

human 5-HT2B receptor [4] = molecular target: T1, human 5-HT2B receptor; experiment: Cloned human 5-HT2B receptor binding assay ([3H]-5HT); set-up: expressed in transfected cells; host or cells: HEK 293 cells, transiently transfected; membrane preparation; details: HEK 293 cells transiently transfected with human 5-HT2B receptor, [3H]5-HT 4 to 5 nM, 37°C 30 min; result in words only
Experimental: The following describes an in vitro binding assay utilizing cloned 5-HT2B receptors radiolabelled with [^3H]-5HT.
HEK 293 cells transiently transfected with an expression plasmid pXMD1-hu2B encoding the human 5-HT2B receptor (see Schmuck et al., FEBS Lett., 1994, 342, 85-90) were used as described previously (Schmuck et al., Eur. J. Pharmacol., 1996, 8, 959-967). Two days after transfection cells were harvested, pelleted at 500g for 5 min at 4°C, gently resuspended in ice-cold buffer1 (50 mM TRIS pH 7.7, 4 mM CaCl2) and homogenized using a Polytron PT 1200 tissue homogenizer (position 6 for 30 s). Cells were pelleted at 50,000g. 4°C for 10 min, washed with buffer1 and pelleted again. The final pellet was resuspended in incubation buffer (50 mM TRIS pH 7.7, 4 mM CaCl2, 10 µM pargyline and 0.1 % by weight ascorbic acid). The binding assay consisted of 300 µl of membrane suspension (protein concentration = 0.3 to 0.5 mg/ml), 150 µl of competing drug and 50 µl of [^3H]5-HT at a final concentration of 4 to 5 nM. The mixture was incubated at 37°C for 30 min and the assay terminated by rapid filtration and two washing steps with 5 ml of cold 20 mM Tris-HCl pH = 7.5, and 154 mM NaCl over Whatman GFB filters. Filters were counted by liquid scintillation. Non-specific binding was determined in the presence of an excess of 5-HT (100 µM). […] Results are expressed as pKi values. […]

T1 sequence (P41595 whole entry): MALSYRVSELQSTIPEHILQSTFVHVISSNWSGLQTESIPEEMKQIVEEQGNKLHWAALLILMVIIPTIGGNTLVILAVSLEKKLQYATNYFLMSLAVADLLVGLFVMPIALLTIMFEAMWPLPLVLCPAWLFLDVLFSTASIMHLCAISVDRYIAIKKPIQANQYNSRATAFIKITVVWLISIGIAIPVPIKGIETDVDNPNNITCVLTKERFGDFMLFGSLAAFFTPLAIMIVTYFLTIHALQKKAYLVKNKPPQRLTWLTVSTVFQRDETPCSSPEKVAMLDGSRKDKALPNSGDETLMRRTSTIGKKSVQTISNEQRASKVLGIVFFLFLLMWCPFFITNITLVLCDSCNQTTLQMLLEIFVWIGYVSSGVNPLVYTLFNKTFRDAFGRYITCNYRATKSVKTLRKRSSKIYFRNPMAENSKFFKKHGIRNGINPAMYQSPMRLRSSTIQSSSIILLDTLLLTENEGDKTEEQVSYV

Compound: CCOc1ccc2c(c1)Sc1ccccc1C2=C1CCN(C)CC1 [1-methyl-4-(3-ethoxy-9H-thioxanthene-9-ylidene)-piperidine]
- affinity for the 5-HT2B receptor (human 5-HT2B receptor [1]): found to have affinity for the 5-HT2B receptor
- antagonist at the 5-HT2B receptor (5-HT2B receptor): found to be an antagonist at the 5-HT2B receptor
- antagonist at the human H1 receptor (human H1 receptor [2]): found to be an antagonist at the human H1 receptor
- affinity for the human H1 receptor (human H1 receptor [3]): found to have affinity for the human H1 receptor
- affinity for the 5-HT2B receptor (human 5-HT2B receptor [4]): found to have affinity for the 5-HT2B receptor
